# Source: US20140378409A1, “EFFECT POTENTIATOR FOR ANTITUMOR AGENTS” (TAIHO PHARMACEUTICAL CO., LTD., priority 2011, published 2014)
# Where a name gives a salt, the structure may show the parent alone.
# Legend:
# [1] = system: human lung cancer cell line NCI-H441; assay: Antitumor effect potentiating activity for gemcitabine hydrochloride, NCI-H441 subcutaneously transplanted model (nude mice); assay type: in vivo, human; nude mice
# Experimental: (§1) As an index of the antitumor effect, the TV on Day 15 was measured for each medicament treated group, and the relative tumor volume (RTV) for Day 1 and T/C (%) were calculated by the following formulas to evaluate the antitumor effect.
# (§2) TV (mm^3)=(Major axis×minor axis^2)/2
# (§3) RTV=(TV on Day 15)/(TV on Day 1)
# (§4) T/C (%)=(Mean RTV value of test solution administered group)/(mean RTV value of control group)×100
# A human lung cancer cell line (NCI-H441) was transplanted into the right chest of a 5- to 6-week old male BALB/cA Jcl-nu mouse, and the mouse was used in the same manner as described in Test Example 1.
# The test solution for a gemcitabine hydrochloride (GEMZAR, manufactured by Eli Lilly and Co.) single administration group was prepared such that the administered dose would be 240 mg/kg/day. Furthermore, the test solution of the compound (1) was prepared such that the administered dose would be 200 mg/kg/day.
# The compound (1) was orally administered every day for 14 consecutive days from Day 1, and gemcitabine hydrochloride was administered on Day 1 and Day 8 through the mouse tail vein. Ina combined administration group, 200 mg/kg/day of the compound (1) and 240 mg/kg/day of gemcitabine hydrochloride were administered, and the effects were evaluated in the same manner as described in Test Example 1.
# [2] = system: human colorectal cancer cell line HT-29; assay: Antitumor effect potentiating activity for irinotecan hydrochloride, HT-29 subcutaneously transplanted model (nude mice); assay type: in vivo, human; nude mice; conditions: HT-29, nude mice, Day 15
# Experimental: as §1, §2, §3, §4
# (§5) Furthermore, as an index of toxicity, the body weight [BW] was measured over time, and the mean body weight change [BWC (%)] up to Day 15 with respect to Day 1 was calculated by the following formula (n: day of body weight measurement carried out at a rate of two times/week, and the final day of measurement corresponds to Day 15, which is the final evaluation day).
# (§6) BWC (%)=[(BW on Day n)−(BW on Day 1)]/(BW on Day 1)×100
# [3] = system: human gastric cancer cell line NCI-N87; assay: Antitumor effect potentiating activity for lapatinib, NCI-N87 subcutaneously transplanted model (nude mice); assay type: in vivo, human; nude mice; conditions: 14 days
# Experimental: as §1, §2, §3, §4
# A human gastric cancer cell line (NCI-N87) was transplanted into the right chest of a 5- to 6-week old male BALB/cA Jcl-nu mouse, and the mouse was used in the same manner as described in Test Example 1. The test solution for a lapatinib (manufactured by LC Laboratories, Inc.) single administration group was prepared such that the amount of administration would be 100 mg/kg/day. Furthermore, the test solution of the compound (1) was prepared such that the amount of administration would be 200 mg/kg/day of the compound (1).
# (§7) The compound (1) and lapatinib were orally administered every day for 14 consecutive days from Day 1. In a combined administration group, 200 mg/kg/day of the compound (1) and 100 mg/kg/day of lapatinib were administered, and the effects were evaluated in the same manner as described in Test Example 1.
# [4] = system: human lung cancer cell line NCI-H460; assay: Antitumor effect potentiating activity for paclitaxel, NCI-H460 subcutaneously transplanted model (nude mice); assay type: in vivo, human; nude mice
# Experimental: A human lung cancer cell line (NCI-H460) was transplanted into the right chest of a 5- to 6-week old male BALB/cA Jcl-nu mouse. After the tumor transplantation, the major axis (mm) and the minor axis (mm) of the tumor were measured to calculate the tumor volume (TV), and then mice were allocated to each treatment group such that the average TV's of each group would be uniform. The day on which this grouping (n=5) was performed was designated as Day 1.
# The test solution for a paclitaxel (TAXOL injection, Bristol Myers K.K.) single administration group was prepared such that the administered dose of paclitaxel would be 60 mg/kg/day. Furthermore, the test solution for a compound (1) single administration group was prepared such that the administered dose would be 200 mg/kg/day. The compound (1) was orally administered every day for 14 consecutive days from Day 1, and paclitaxel was administered on Day 1 through the mouse tail vein. In a combined administration group, 200 mg/kg/day of the compound (1) and 60 mg/kg/day of paclitaxel were administered.
# as §1, §2, §3, §4, §5, §6
# [5] = system: human gastric cancer cell line NUGC-4; assay: Antitumor effect potentiating activity for paclitaxel, NUGC-4 subcutaneously transplanted model (nude mice); assay type: in vivo, human; nude mice; conditions: NUGC-4, nude mice, Day 15
# Experimental: as §1, §2, §3, §4, §5, §6
# A human gastric cancer cell line (NUGC-4) was transplanted into the right chest of a 5- to 6-week old male BALB/cA Jcl-nu mouse, and the mouse was used in the same manner as described in Test Example 1.
# The test solution for a paclitaxel (TAXOL injection, manufactured by Bristol Myers K.K.) single administration group was prepared such that the amount of administration of paclitaxel would be 60 mg/kg/day.
# The test solution of the compound (1) was prepared such that the amount of administration would be 12.5 mg/kg/day of the compound (1). In a combined administration group, 12.5 mg/kg/day of the compound (1) and 60 mg/kg/day of paclitaxel were administered. The compound (1) was orally administered every day for 14 consecutive days from Day 1, paclitaxel was administered on Day 1 through the mouse tail vein, and evaluation was made in the same manner as described in Test Example 1.
# Furthermore, the body weight changes over time, which is an indicator of toxicity, were also evaluated in the same manner as described in Test Example 1.
# [6] = system: human gastric cancer cell line NUGC-4; assay: Antitumor effect potentiating activity for TS-1, NUGC-4 subcutaneously transplanted model (nude rats); assay type: in vivo, human; nude rats; conditions: NUGC-4, nude rats, Day 15, 14 days
# Experimental: as §1, §2, §3, §4
# A human gastric cancer cell line (NUGC-4) was transplanted into the right chest of a 5- to 6-week old male nude rat, and the rat was used in the same manner as described in Test Example 1. The test solution for a TS-1 (TS-1, manufactured by Taiho Pharmaceutical Co., Ltd.) single administration group was prepared such that the amount of administration of tegafur would be 18 mg/kg/day. Furthermore, the test solution of the compound (1) was prepared such that the amount of administration would be 250 mg/kg/day and 50 mg/kg/day.
# as §7, with “TS-1” for “lapatinib”, “250 mg/kg/day and 50” for “200”, “18” for “100”
# [7] = Day 15, 240 mg/kg/day, tail vein Day 1 and Day 8
# [8] = Day 15, lapatinib 100 mg/kg/day oral
# [9] = Day 15, paclitaxel 60 mg/kg/day, tail vein Day 1
# [10] = paclitaxel 60 mg/kg/day, tail vein Day 1
# [11] = Day 15, 200 mg/kg/day oral, 14 consecutive days
smiles,measurement,setting,value
"Nc1ccn([C@@H]2O[C@H](CO)[C@@H](O)C2(F)F)c(=O)n1 [Gemcitabine hydrochloride, gemcitabine hydrochloride, reference compound]",RTV (mean ± standard deviation),[1]; [7],1.10 ± 0.13
same,T/C (%),[1]; [7],16%
"CCc1c2c(nc3ccc(OC(=O)N4CCC(N5CCCCC5)CC4)cc13)-c1cc3c(c(=O)n1C2)COC(=O)[C@]3(O)CC [Irinotecan hydrochloride, irinotecan hydrochloride, reference compound]",RTV (mean ± standard deviation),"[2]; 50 mg/kg/day, tail vein Day 1, Day 5, Day 9",2.47 ± 0.40
"CS(=O)(=O)CCNCc1ccc(-c2ccc3ncnc(Nc4ccc(OCc5cccc(F)c5)c(Cl)c4)c3c2)o1 [Lapatinib, lapatinib, reference compound]",RTV (mean ± standard deviation),[3]; [8],1.56 ± 0.18
same,T/C (%),[3]; [8],62%
"CC(=O)O[C@H]1C(=O)[C@@]2(C)[C@H]([C@H](OC(=O)c3ccccc3)[C@]3(O)C[C@H](OC(=O)[C@H](O)[C@@H](NC(=O)c4ccccc4)c4ccccc4)C(C)=C1C3(C)C)[C@]1(OC(C)=O)CO[C@@H]1C[C@@H]2O [Paclitaxel, paclitaxel, reference compound]",RTV (mean ± standard deviation),[4]; [9],3.67 ± 0.42
same,T/C (%),[4]; [9],41%
same,RTV (mean ± standard deviation),[5]; [10],5.77 ± 0.96
same,T/C (%),[5]; [10],83%
"CNC(=O)c1cc2c(Oc3ccc(NC(=S)NC(=O)Cc4ccccc4)cc3F)ccnc2cc1OC [compound (1), 4-(2-Fluoro-4-(3-(2-phenylacetyl)thioureido)phenoxy)-7-methoxy-N-methylquinoline-6-carboxamide]",RTV (mean ± standard deviation),[4]; [11],3.02 ± 0.63
same,T/C (%),[4]; [11],34%
same,RTV (mean ± standard deviation),[1]; [11],1.26 ± 0.15
same,T/C (%),[1]; [11],18%
same,RTV (mean ± standard deviation),[6]; 50 mg/kg/day oral,2.36 ± 0.44
same,T/C (%),[6]; 50 mg/kg/day oral,14%
same,RTV (mean ± standard deviation),[6]; 250 mg/kg/day oral,1.60 ± 0.33
same,T/C (%),[6]; 250 mg/kg/day oral,10%
same,RTV (mean ± standard deviation),"[3]; Day 15, 200 mg/kg/day oral",1.31 ± 0.23
same,T/C (%),"[3]; Day 15, 200 mg/kg/day oral",52%
same,RTV (mean ± standard deviation),"[2]; 50 mg/kg/day oral, 14 days",1.83 ± 0.29
same,T/C (%),"[2]; 50 mg/kg/day oral, 14 days",44%
same,RTV (mean ± standard deviation),"[5]; 12.5 mg/kg/day oral, 14 days",6.63 ± 1.91
same,T/C (%),"[5]; 12.5 mg/kg/day oral, 14 days",95%
